Laboratory results from PMC6151383 (Molecules : A Journal of Synthetic Chemistry and Natural …, 2017).
Converted amounts (≈) assume the structure as drawn. Where two headings read alike, the source gives them in different places.

Experiments:
[1] = tested on: Enterococcus faecalis J 14365/08; design: method as in PMID 22365879; settings: 48 h incubation; cited from earlier work
[2] = tested on: Trichophyton interdigitale 445; experiment: Antifungal microdilution broth MIC, T. interdigitale; format: cell-based
Trichosporon asahii 1188 [3] = tested on: Trichosporon asahii 1188; design: method as in PMID 22365879; settings: 48 h incubation; cited from earlier work
[4] = tested on: ESBL-positive Klebsiella pneumoniae J 14368/08; design: method as in PMID 22365879; settings: 48 h incubation; cited from earlier work
Candida krusei E28 [5] = tested on: Candida krusei E28; design: method as in PMID 22365879; settings: 48 h incubation; cited from earlier work
[6] = tested on: Aspergillus fumigatus 231; design: method as in PMID 22365879; settings: 48 h incubation; cited from earlier work
[7] = tested on: Staphylococcus aureus CCM 4516/08; design: method as in PMID 22365879; settings: 48 h incubation; cited from earlier work
[8] = tested on: Mycobacterium tuberculosis 331/88 (H37Rv); design: method as in PMID 22365879; settings: cited from earlier work
[9] = tested on: Mycobacterium avium 330/88; design: method as in PMID 22365879; settings: cited from earlier work
[10] = tested on: Escherichia coli CCM 4517; design: method as in PMID 22365879; settings: 48 h incubation; cited from earlier work
M. kansasii 6509/96 [11] = tested on: M. kansasii 6509/96; design: method as in PMID 22365879; settings: cited from earlier work
[12] = tested on: Lichtheimia corymbifera 272; design: method as in PMID 22365879; settings: 48 h incubation; cited from earlier work
M. kansasii = tested on: M. kansasii; design: method as in PMID 22365879; settings: range over M. kansasii strains; cited from earlier work
Candida glabrata 20/I [13] = tested on: Candida glabrata 20/I; design: method as in PMID 22365879; settings: 48 h incubation; cited from earlier work
Candida tropicalis 156 [14] = tested on: Candida tropicalis 156; design: method as in PMID 22365879; settings: 48 h incubation; cited from earlier work
[15] = tested on: Trichophyton interdigitale 445; design: method as in PMID 22365879; settings: cited from earlier work
[16] = tested on: Mycobacterium kansasii 235/80; design: method as in PMID 22365879; settings: cited from earlier work
[17] = tested on: Pseudomonas aeruginosa CCM 1961; design: method as in PMID 22365879; settings: 48 h incubation; cited from earlier work
[18] = tested on: Candida albicans ATCC 44859; design: method as in PMID 22365879; settings: 48 h incubation; cited from earlier work
[19] = tested on: Klebsiella pneumoniae D 11750/08; design: method as in PMID 22365879; settings: 48 h incubation; cited from earlier work
[20] = tested on: Staphylococcus epidermidis H 6966/08; design: method as in PMID 22365879; settings: 48 h incubation; cited from earlier work
[21] = tested on: Staphylococcus epidermidis H 6966/08; experiment: Antibacterial microdilution broth MIC, S. epidermidis; format: cell-based; settings: Staphylococcus epidermidis
[22] = tested on: ESBL-positive Klebsiella pneumoniae J 14368/08; settings: 48 h incubation
Candida tropicalis 156 [23] = experiment: Antifungal microdilution broth MIC, C. tropicalis; format: cell-based
[24] = tested on: Lichtheimia corymbifera 272; experiment: Antifungal microdilution broth MIC, L. corymbifera; format: cell-based
[25] = tested on: Escherichia coli CCM 4517; experiment: Antibacterial microdilution broth MIC, E. coli; format: cell-based; settings: Escherichia coli
[26] = tested on: Aspergillus fumigatus 231; experiment: Antifungal microdilution broth MIC, A. fumigatus; format: cell-based
[27] = tested on: Staphylococcus aureus CCM 4516/08; experiment: Antibacterial microdilution broth MIC, S. aureus; format: cell-based; settings: Staphylococcus aureus
[28] = tested on: Mycobacterium avium 330/88; experiment: In vitro antimycobacterial MIC, M. avium; format: cell-based
Trichosporon asahii 1188 [29] = experiment: Antifungal microdilution broth MIC, T. asahii; format: cell-based
[30] = tested on: Pseudomonas aeruginosa CCM 1961; experiment: Antibacterial microdilution broth MIC, P. aeruginosa; format: cell-based; settings: Pseudomonas aeruginosa
Candida glabrata 20/I [31] = experiment: Antifungal microdilution broth MIC, C. glabrata; format: cell-based; settings: Nakaseomyces glabratus
Candida sp. = experiment: Selectivity index for Candida sp. (IC50 HepG2/MIC); format: cell-based; settings: all Candida species
M. kansasii 6509/96 [32] = experiment: In vitro antimycobacterial MIC, M. kansasii clinical isolate; format: cell-based; settings: Mycobacterium kansasii
[33] = tested on: Enterococcus faecalis J 14365/08; experiment: Antibacterial microdilution broth MIC, E. faecalis; format: cell-based; settings: Enterococcus faecalis
[34] = tested on: Klebsiella pneumoniae D 11750/08; experiment: Antibacterial microdilution broth MIC, K. pneumoniae; settings: 48 h incubation
[35] = tested on: Mycobacterium tuberculosis 331/88 (H37Rv); experiment: In vitro antimycobacterial MIC, M. tuberculosis; format: cell-based
[36] = tested on: Candida albicans ATCC 44859; experiment: Antifungal microdilution broth MIC, C. albicans; format: cell-based
[37] = tested on: Mycobacterium kansasii 235/80; experiment: In vitro antimycobacterial MIC, M. kansasii 235/80; format: cell-based
Candida krusei E28 [38] = experiment: Antifungal microdilution broth MIC, C. krusei; format: cell-based; settings: Pichia kudriavzevii

O=S(=O)(Nc1ncccn1)c1ccc(N=Cc2cc(Cl)ccc2O)cc1 [Compound 2c, 4-[(5-Chloro-2-hydroxybenzylidene)amino]-N-(pyrimidin-2-yl)benzenesulfonamide]
MIC EF 48 h [1]: >500 µM
SI for TI ([2]; SI = IC50 (HepG2)/MIC, Trichophyton interdigitale): inactive
MIC TA 48 h (Trichosporon asahii 1188 [3]): 125 µM (≈ 48.6 µg/mL)
MIC KP-E 48 h [4]: >500 µM
MIC CK 48 h (Candida krusei E28 [5]): >500 µM
MIC AF 48 h [6]: >500 µM
MIC SA 48 h [7]: 250 µM (≈ 97.2 µg/mL)
MIC Mtb. 331/88 14 d ([8]; 14 d incubation): 125 µM (≈ 48.6 µg/mL)
MIC Mtb. 331/88 21 d ([8]; 21 d incubation): 250 µM (≈ 97.2 µg/mL)
MIC M. avium 330/88 14 d ([9]; 14 d incubation): 125 µM (≈ 48.6 µg/mL)
MIC M. avium 330/88 21 d ([9]; 21 d incubation): 125 µM (≈ 48.6 µg/mL)
MIC EC 48 h [10]: >500 µM
MIC M. kansasii 6509/96 7 d (M. kansasii 6509/96 [11]; 7 d incubation): 16 µM (≈ 6.22 µg/mL)
MIC M. kansasii 6509/96 14 d (M. kansasii 6509/96 [11]; 14 d incubation): 32 µM (≈ 12.4 µg/mL)
MIC M. kansasii 6509/96 21 d (M. kansasii 6509/96 [11]; 21 d incubation): 32 µM (≈ 12.4 µg/mL)
MIC LC 48 h [12]: >500 µM
MIC, M. kansasii strains (M. kansasii): 8 to 32 µM
MIC CG 48 h (Candida glabrata 20/I [13]): 125 µM (≈ 48.6 µg/mL)
MIC CT 48 h (Candida tropicalis 156 [14]): >500 µM
MIC TI 72 h ([15]; 72 h incubation): >500 µM
MIC TI 120 h ([15]; 120 h incubation): >500 µM
MIC M. kansasii 235/80 7 d ([16]; 7 d incubation): 8 µM (≈ 3.11 µg/mL)
MIC M. kansasii 235/80 14 d ([16]; 14 d incubation): 16 µM (≈ 6.22 µg/mL)
MIC M. kansasii 235/80 21 d ([16]; 21 d incubation): 32 µM (≈ 12.4 µg/mL)
MIC PA 48 h [17]: >500 µM
MIC CA 48 h [18]: 125 µM (≈ 48.6 µg/mL)
MIC KP 48 h [19]: >500 µM
MIC SE 48 h [20]: >500 µM

CC(C)(C)c1ccc(O)c(C=Nc2ccc(S(=O)(=O)Nc3ncccn3)cc2)c1 [Compound 2j, 4-{[5-(Tert-butyl)-2-hydroxybenzylidene]amino}-N-(pyrimidin-2-yl)benzenesulfonamide]
MIC ([21]; H6966/08, 24 h, read-out: MIC SE 24 h): > 125 µM
MIC ([21]; H6966/08, 48 h, read-out: MIC SE 48 h): > 125 µM
MIC KP-E 48 h [22]: >125 µM
MIC (Candida tropicalis 156 [23]; Candida tropicalis, 156, 24 h, read-out: MIC CT 24 h): > 125 µM
MIC (Candida tropicalis 156 [23]; Candida tropicalis, 156, 48 h, read-out: MIC CT 48 h): > 125 µM
MIC ([2]; Trichophyton interdigitale, 445, 72 h, read-out: MIC TI 72 h): 62.5 µM (≈ 25.7 µg/mL)
MIC ([2]; Trichophyton interdigitale, 445, 120 h, read-out: MIC TI 120 h): 62.5 µM (≈ 25.7 µg/mL)
MIC ([2]; Trichophyton interdigitale, 445, read-out: MIC for T. interdigitale): 62.5 µM (≈ 25.7 µg/mL)
MIC ([24]; Lichtheimia corymbifera, 272, 24 h, read-out: MIC LC 24 h): > 125 µM
MIC ([24]; Lichtheimia corymbifera, 272, 48 h, read-out: MIC LC 48 h): > 125 µM
MIC ([25]; CCM4517, 24 h, read-out: MIC EC 24 h): > 125 µM
MIC ([25]; CCM4517, 48 h, read-out: MIC EC 48 h): > 125 µM
MIC ([26]; Aspergillus fumigatus, 231, 24 h, read-out: MIC AF 24 h): > 125 µM
MIC ([26]; Aspergillus fumigatus, 231, 48 h, read-out: MIC AF 48 h): > 125 µM
MIC ([27]; CCM4516, 24 h, read-out: MIC SA 24 h): > 125 µM
MIC ([27]; CCM4516, 48 h, read-out: MIC SA 48 h): > 125 µM
MIC ([28]; 330/88, 336 h, 14 d incubation, read-out: MIC M. avium 330/88 14 d): 125 µM (≈ 51.3 µg/mL)
MIC ([28]; 330/88, 504 h, 21 d incubation, read-out: MIC M. avium 330/88 21 d): 125 µM (≈ 51.3 µg/mL)
MIC (Trichosporon asahii 1188 [29]; Trichosporon asahii, 1188, 24 h, read-out: MIC TA 24 h): > 125 µM
MIC (Trichosporon asahii 1188 [29]; Trichosporon asahii, 1188, 48 h, read-out: MIC TA 48 h): > 125 µM
MIC ([30]; CCM1961, 24 h, read-out: MIC PA 24 h): > 125 µM
MIC ([30]; CCM1961, 48 h, read-out: MIC PA 48 h): > 125 µM
MIC (Candida glabrata 20/I [31]; 24 h, read-out: MIC CG 24 h): > 125 µM
MIC (Candida glabrata 20/I [31]; 48 h, read-out: MIC CG 48 h): > 125 µM
SI for Candida sp. (Candida sp.): inactive
MIC (M. kansasii 6509/96 [32]; 6509/96, 168 h, 7 d incubation, read-out: MIC M. kansasii 6509/96 7 d): 16 µM (≈ 6.57 µg/mL)
MIC (M. kansasii 6509/96 [32]; 6509/96, 336 h, 14 d incubation, read-out: MIC M. kansasii 6509/96 14 d): 16 µM (≈ 6.57 µg/mL)
MIC (M. kansasii 6509/96 [32]; 6509/96, 504 h, 21 d incubation, read-out: MIC M. kansasii 6509/96 21 d): 32 µM (≈ 13.1 µg/mL)
MIC ([33]; J14365/08, 24 h, read-out: MIC EF 24 h): > 125 µM
MIC ([33]; J14365/08, 48 h, read-out: MIC EF 48 h): > 125 µM
MIC KP 48 h [34]: >125 µM
MIC ([35]; 336 h, 14 d incubation, read-out: MIC Mtb. 331/88 14 d): 32 µM (≈ 13.1 µg/mL)
MIC ([35]; 504 h, 21 d incubation, read-out: MIC Mtb. 331/88 21 d): 62.5 µM (≈ 25.7 µg/mL)
MIC ([36]; ATCC44859, 24 h, read-out: MIC CA 24 h): > 125 µM
MIC ([36]; ATCC44859, 48 h, read-out: MIC CA 48 h): > 125 µM
MIC ([37]; 235/80, 168 h, 7 d incubation, read-out: MIC M. kansasii 235/80 7 d): 16 µM (≈ 6.57 µg/mL)
MIC ([37]; 235/80, 336 h, 14 d incubation, read-out: MIC M. kansasii 235/80 14 d): 32 µM (≈ 13.1 µg/mL)
MIC ([37]; 235/80, 504 h, 21 d incubation, read-out: MIC M. kansasii 235/80 21 d): 62.5 µM (≈ 25.7 µg/mL)
MIC (Candida krusei E28 [38]; E28, 24 h, read-out: MIC CK 24 h): > 125 µM
MIC (Candida krusei E28 [38]; E28, 48 h, read-out: MIC CK 48 h): > 125 µM
